Assay results taken from patent US6365734B1, “Cucurbituril derivatives, their preparation methods and uses” (Pohang University of Science and Technology Foundation, priority 1999, dated 2002).

How the values were obtained:
[1] = Binding constant by microcalorimeter (VP-ITC); settings: water/formic acid 1:1 by volume, 1.0 mM host
Procedure: Distilled water and formic acid were mixed in a ratio of 1:1: by volume. Next, 1.0 mM of cucurbit[5]uril derivative was prepared with the diluted formic acid. 20.0 mM of aqueous solution containing ammonium ions, and positive ions of alkaline metals, such as lithium, sodium and potassium, was prepared. Then, the binding constants of the cucurbit[5]uril derivative with these ions were measured using a microcalorimeter (VP-ITC, manufactured by MicroCal). As a result, the cucurbit[5]uril derivative has a binding constant of 5.4×10^3M^−1 with ammonium ions, 3.3×10^2M^−1 with positive lithium ions, 4.5×10^3M^−1 with positive sodium ions, and 2.6×10^4M^−1 with positive potassium ions. The cucurbit[5]uril derivative can selectively bind with alkali metal ions, as well as with ammonium ions. The result confirms that cucurbituril derivatives can be used as ion sensors.

[2] = Inclusion complex formation in water; format: binding; settings: guest cyclen, heating then slow cooling
Procedure: 120.0 mg of cyclen tetrahydrochloride ([…] tetrahydrochloride) and 100.0 mg of cucurbit[8]uril were dissolved in water.

[3] = Complex formation with anti-cancer drug, drug carrier test (NMR); format: binding; settings: in water
Procedure: The following example is for investigating the function of the cucurbituril derivatives obtained in Synthesis Examples 1 through 10, as a drug carrier. In the following example, cisplatin, an anti-cancer drug, was used.
2.0 mg of Cis-dichloroethylenediamine platinum (II) and 2.0 mg of cucurbit[8]uril were dissolved in water.

[4] = Ternary complex formation, nucleic acid base sensing (NMR); format: binding; settings: methylviologen, thymine and host, D2O, heated
Procedure: 5.0 mM of methylviologendichloride solution, and 5.0 mM of thymine solution were prepared using D2O solvent. 0.25 ml of each solution was mixed with 2.1 mg of cucurbit[8]uril. Next, the mixture was heated until the color changed into yellow.

[5] = Complex formation with herbicide (NMR); format: binding; settings: methylviologen and host, D2O
Procedure: Methylviologendichloride (so-called paraquat), a herbicide, was used. 5.0 mM of mehylbiologendichloride solution was prepared with D2O solvent. Next, cucurbit[8]uril was added to the solution.

[6] = Ternary complex formation, amino acid sensing (NMR); format: binding; settings: methylviologen, tryptophan and host, D2O, heated
Procedure: 5.0 mM of methylviologendichloride solution, and 5.0 mM of tryptophan solution were prepared using D2O solvent. 0.25 ml of each solution was mixed with 2.1 mg of cucurbit[8]uril. Next, the mixture was heated until the color changed into red.

[7] = Inclusion complex formation in water; format: binding; settings: guest cyclam, heating then slow cooling
Procedure: 13.0 mg of cyclam tetrahydrochloride (1,4,8,11-tetraazacyclotetradecane tetrahydrochloride) and 10.0 mg of cucurbit[8]uril were dissolved in water.

[8] = Ternary complex formation, amino acid sensing (NMR); format: binding; settings: methylviologen, tyrosine and host, D2O, heated
Procedure: 5.0 mM of methylviologendichloride solution, and 5.0 mM of tyrosine solution were prepared using D2O solvent. 0.25 ml of each solution was mixed with 2.1 mg of cucurbit[8]uril. Next, the mixture was heated until the color changed into yellow.

[9] = Host-guest complex formation in water (NMR); format: binding; settings: guest 2,6-Bis(4,5-dihydro-1H-imidazol-2-yl)naphthalene dihydrochloride
Procedure: 5.80 mg of 2,6-Bis(4,5-dihydro-1H-imidazol-2-yl)naphthalene dihydrochloride and 5.0 mg of cucurbit[8]uril were dissolved in water.
4.35 mg of 2,6-Bis(4,5-dihydro-1H-imidazol-2-yl)naphthalene dihydrochloride and 5.0 mg of cucurbit[7]uril were dissolved in water.

[10] = Organic dye removal from water, UV absorption of filtrate
Procedure: 30 mg of organic dye, Direct Red 5B (commercially available from Ciba-Geigy Co.) was dissolved in 150 ml of water to prepare an organic dye solution. To half the organic dye solution, 150 mg of cucurbit[7]uril was added and stirred for 30 minutes.
The precipitate was filtered, and UV absorption spectra were measured at λmax=510 nm on the filtrate and the remaining half of the organic dye solution which was not treated with the cucurbut[7]uril.
R=UV absorption intensity of the dye solution treated with cucurbit[7]uril ×100/UV absorption intensity of the dye solution before the treatment with cucurbit[7]uril.
The following dyes were used: Reactive Blue HE-G (produced by Kyung-In Co.), Direct Solophenyl Violet 4BL (produced by Ciba-Geigy Co.), Reactive Navy Blue HE-R 150 (produced by Kyung-In Co.), Disperse Yellow E-3 (produced by LG Co.), Disperse T/Q Blue S-GL (produced by LG Co.) and Orange TGL (produced by Ciba-Geigy Co.).

[11] = Inclusion complex formation in water; format: binding; settings: guest 1-aminoadamantane, addition of methanol
Procedure: 24.2 mg of 1-aminoadanmatane hydrochloride and 50.0 mg of cucurbi[7]uril were dissolved in water.

For `O=C1N2CN3C(=O)N4CN5C(=O)N6CN7C(=O)N8CN9C(=O)N%10CN1C1C2N2CN%11C(=O)N(CN%12C(=O)N(CN%13C(=O)N(CN%14C(=O)N(CN1C2=O)C%10C9%14)C8C7%13)C6C5%12)C4C3%11` (stereo not shown) [cucurbit[5]uril], the “binding constant with ammonium ions” value [1] was 5400 M⁻¹, the “binding constant with positive lithium ions” value [1] was 330 M⁻¹ and the “binding constant with positive potassium ions” value [1] was 26000 M⁻¹. The “binding constant with positive sodium ions” value [1] was 4500 M⁻¹.

With `O=C1N2CN3C(=O)N4CN5C(=O)N6CN7C(=O)N8CN9C(=O)N%10CN%11C(=O)N%12CN%13C(=O)N%14CN%15C(=O)N%16CN1C1C2N2CN%17C(=O)N(CN%18C(=O)N(CN%19C(=O)N(CN%20C(=O)N(CN%21C(=O)N(CN%22C(=O)N(CN%23C(=O)N(CN1C2=O)C%16C%15%23)C%14C%13%22)C%12C%11%21)C%10C9%20)C8C7%19)C6C5%18)C4C3%17` (stereo not shown) [cucurbit[8]uril] the inclusion complex formation [2] was “produced an inclusion complex”, the “complex formation and stoichiometry (platinum compound : host)” value [3] was “quantitative formation of a 2:1 complex” and the “complex formation and stoichiometry” value [4] was “quantitative formation of a 1:1:1 complex”. For the same molecule, the “complex formation and stoichiometry” value [5] was “quantitative formation of a 1:1 complex”, the “complex formation and stoichiometry” value [6] was “quantitative formation of a 1:1:1 complex” and the inclusion complex formation [7] was “produced an inclusion complex”. The “complex formation and stoichiometry” value [8] was “quantitative formation of a 1:1:1 complex” and the “host-guest complex formation and stoichiometry” value [9] was “quantitative formation of a 1:2 host-guest complex”.

Molecule cucurbit[7]uril has an R ([10]; Direct Red 5B, 510 nm, R = intensity after treatment ×100 / intensity before) of 1.7%, an R ([10]; Direct Solophenyl Violet 4BL, 546 nm, R = intensity after ×100 / before) of 1.3% and an R ([10]; Disperse T/Q Blue S-GL 200, 776 nm, R = intensity after ×100 / before) of 0.8%. The R ([10]; Disperse Yellow E-3, 429 nm, R = intensity after ×100 / before) was 3.0%, the R ([10]; Orange TGL, 419 nm, R = intensity after ×100 / before) was 5.4% and the R ([10]; Reactive Blue HE-G, 626 nm, R = intensity after ×100 / before) was 0.3%. For the same molecule, the R ([10]; Reactive Blue HE-G, 662 nm, R = intensity after ×100 / before) was 0.3%, the R ([10]; Reactive Navy Blue HE-R 150, 609 nm, R = intensity after ×100 / before) was 0.6% and the inclusion complex formation [11] was “produced an inclusion complex”. The “host-guest complex formation and stoichiometry” value [9] was “quantitative formation of a 1:1 host-guest complex”.
